Legend:
[1] = molecular target: p38 MAPKα (MAPK14) (Homo sapiens (Human), UniProt Q16539); assay: p38 MAPKα enzyme inhibition (FRET, Z-LYTE; Method 2); type: biochemical
Description: (§1) The enzyme inhibitory activities of compounds disclosed herein are determined by FRET using synthetic peptides labelled with both donor and acceptor fluorophores (Z-LYTE, Invitrogen Ltd., Paisley, UK).
The inhibitory activities of test compounds against the p38 MAPKα isoform (MAPK14: Invitrogen) are evaluated indirectly by determining the level of activation\phosphorylation of the down-stream molecule, MAPKAP-K2. The p38 MAPKα protein (80 ng/mL, 2.5 μL) is mixed with the test compound (2.5 μL of either 4 μg/mL, 0.4 μg/mL, 0.04 μg/mL or 0.004 μg/mL) for 2 hr at RT. […] The mixture is incubated for 1 hr at RT. Development reagent (protease, 5 μL) is added for 1 hr prior to detection in a fluorescence microplate reader (Vanoskan® Flash, ThermoFisher Scientific).
(§2) In all cases, the site-specific protease cleaves non-phosphorylated peptide only and eliminates the FRET signal. Phosphorylation levels of each reaction are calculated using the ratio of coumarin emission (donor) over fluorescein emission (acceptor), for which high ratios indicate high phosphorylation and low ratios indicate low phosphorylation levels.

[2] = molecular target: c-Src (Homo sapiens (Human), UniProt P12931); assay: c-Src enzyme inhibition (FRET, Z-LYTE); type: biochemical
Sequence of c-Src (P12931 whole entry, looked up): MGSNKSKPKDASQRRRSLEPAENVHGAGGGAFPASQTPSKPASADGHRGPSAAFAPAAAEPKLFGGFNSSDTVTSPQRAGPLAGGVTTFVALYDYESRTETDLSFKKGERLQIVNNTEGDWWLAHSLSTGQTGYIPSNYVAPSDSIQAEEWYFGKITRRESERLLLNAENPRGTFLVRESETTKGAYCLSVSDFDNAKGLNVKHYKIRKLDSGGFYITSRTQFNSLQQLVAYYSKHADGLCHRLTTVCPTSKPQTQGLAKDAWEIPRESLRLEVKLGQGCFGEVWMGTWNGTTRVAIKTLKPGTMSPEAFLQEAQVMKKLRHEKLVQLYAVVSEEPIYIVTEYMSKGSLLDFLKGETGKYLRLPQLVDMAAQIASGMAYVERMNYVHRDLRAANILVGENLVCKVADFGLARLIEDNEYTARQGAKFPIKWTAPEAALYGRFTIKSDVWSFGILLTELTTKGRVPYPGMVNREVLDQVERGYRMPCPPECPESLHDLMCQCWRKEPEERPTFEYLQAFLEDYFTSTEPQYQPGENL
Description: as §1
(§3) The relevant enzyme (3000 ng/mL or 2000 ng/mL respectively, 2.5 μL) is incubated with the test compound (either 1 μg/mL, 0.1 μg/mL, 0.01 μg/mL, or 0.001 μg/mL, 2.5 μL each) for 2 hr at RT. The FRET peptides (8 μM, 2.5 μL), and appropriate ATP solutions (2.5 μL, 800 μM for c-Src, and 60 μM ATP for Syk) are then added to the enzymes/compound mixtures and the mixture incubated for 1 hr. Development reagent (protease, 5 μL) is added for 1 hr prior to detection in a fluorescence microplate reader (Varioskan® Flash, ThermoFisher Scientific).
as §2

[3] = molecular target: Syk (Homo sapiens (Human), UniProt P43405); assay: Syk enzyme inhibition (FRET, Z-LYTE); type: biochemical
Description: as §1, §3, §2

[4] = molecular target: GSK 3α (Homo sapiens (Human), UniProt P49840); assay: GSK 3α enzyme inhibition (FRET, Z-LYTE; Method 2); type: biochemical; conditions: read-out: IC50 Values for Enzyme Inhibition GSK3α
Sequence of GSK 3α (P49840 whole entry): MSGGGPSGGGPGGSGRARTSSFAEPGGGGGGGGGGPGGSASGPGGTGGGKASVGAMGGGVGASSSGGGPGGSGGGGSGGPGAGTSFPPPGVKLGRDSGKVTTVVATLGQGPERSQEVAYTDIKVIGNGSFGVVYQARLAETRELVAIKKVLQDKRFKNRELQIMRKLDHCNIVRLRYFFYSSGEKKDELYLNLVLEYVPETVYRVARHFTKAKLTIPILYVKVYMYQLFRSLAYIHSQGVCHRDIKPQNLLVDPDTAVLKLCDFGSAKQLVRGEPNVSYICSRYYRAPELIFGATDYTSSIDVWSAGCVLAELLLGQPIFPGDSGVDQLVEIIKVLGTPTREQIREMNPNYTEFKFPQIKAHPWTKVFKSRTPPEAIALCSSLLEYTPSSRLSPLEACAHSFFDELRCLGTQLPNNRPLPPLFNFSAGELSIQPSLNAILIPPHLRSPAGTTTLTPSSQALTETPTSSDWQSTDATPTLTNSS
Outline: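 Phosphorylation was taken from the donor (coumarin) to acceptor (fluorescein) emission ratio after 1 h protease development, which cleaves only unphosphorylated peptide. Before that, peptide (8 μM stock) plus ATP (40 μM stock) reacted 1 h. This followed a 105 min RT preincubation of GSK3-α with compound stocks of 10–0.01 μg/mL.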

[5] = system: β-catenin in d-U937 cells; assay: Accumulation of β catenin in d-U937 cells (assay m); type: cell-based, human
Description: U937 cells, a human monocytic cell line, are differentiated into macrophage-type cells by incubation with PMA (100 ng/mL) for between 48 to 72 hr. The cells are then incubated with either final concentrations of test compound or vehicle for 18 hr. The induction of β-catenin by the test compounds is stopped by replacing the media with 4% formaldehyde solution. Endogenous […] is neutralised by incubating with quenching buffer (100 μL, 0.1% sodium azide, 1% H2O2 in PBS with 0.05% Tween-20) for 20 min. The cells are washed with washing buffer (200 μL; PBS containing 0.05% Tween-20) and incubated with blocking solution (200 μL; 5% milk in PBS) for 1 hr, re-washed with washing buffer (200 μL) and then incubated overnight with anti-β-catenin antibody solution (50 μL) in 1% BSA/PBS (BD, Oxford, UK).
After washing with washing buffer (3×200 μL; PBS containing 0.05% Tween-20), cells are incubated with a HRP-conjugated secondary antibody solution (100 μL) in 1% BSA/PBS (Dako, Cambridge, UK) and the resultant signal is determined colourimetrically (OD: 450 nm with a reference wavelength of 655 nm) using TMB substrate (50 μL; R&D Systems, Abingdon, UK). This reaction is stopped by addition of 1N H2SO4 solution (50 μL). Cells are then washed with washing buffer and 2% crystal violet solution (50 μL) is applied for 30 min. After washing with washing buffer (3×200 μL), 1% SDS (100 μL) is added to each well and the plates are shaken lightly for 1 hr prior to measuring the absorbance at 595 nm (Varioskan® Flash, Thermo-Fisher Scientific).
The measured OD450-655 readings are corrected for cell number by dividing the OD450-655 by the OD595 readings.

Sequence of p38 MAPKα (MAPK14) (Q16539 whole entry): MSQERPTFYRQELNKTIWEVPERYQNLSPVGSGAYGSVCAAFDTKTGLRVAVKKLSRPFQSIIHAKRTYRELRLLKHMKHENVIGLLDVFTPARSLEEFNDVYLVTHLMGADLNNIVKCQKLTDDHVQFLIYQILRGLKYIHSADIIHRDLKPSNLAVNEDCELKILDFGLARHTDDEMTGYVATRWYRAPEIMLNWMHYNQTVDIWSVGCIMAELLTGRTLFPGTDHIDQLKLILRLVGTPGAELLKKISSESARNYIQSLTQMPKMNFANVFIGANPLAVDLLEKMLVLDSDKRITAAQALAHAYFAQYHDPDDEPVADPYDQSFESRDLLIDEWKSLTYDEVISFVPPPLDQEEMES

IC50 [1] | IC50 [2] | IC50 [3] | IC50 [4] | Structure (SMILES) | % β-catenin induction ([5]; test compound 1 μg/mL) | % β-catenin induction ([5]; test compound 5 μg/mL) | % β-catenin induction ([5]; test compound 10 μg/mL)
30 nM | 14 nM | 549 nM | 680 nM | COCCOCCOCCOc1cc(Nc2nccc(Oc3ccc(NC(=O)Nc4cc(NS(C)(=O)=O)cc(C(C)(C)C)c4)c4ccccc34)n2)cc(OC)c1 [Example 24, N-(3-(tert-Butyl)-5-(3-(4-((2-((3-methoxy-5-(2-(2-(2-methoxyethoxy)ethoxy)ethoxy)-phenyl)amino)pyrimidin-4-yl)oxy)naphthalen-1-yl)ureido)phenyl)methanesulfonamide] | −3% | 27% | 25%
209 nM | 70 nM | 1170 nM | 11700 nM | C#Cc1cc(Nc2cc(Oc3ccc(NC(=O)Nc4cc(C(C)(C)C)cc(NS(C)(=O)=O)c4OC)c4ccccc34)ccn2)cc(C(=O)N[C@H](C)COCCOCCOC)c1 [Example 68, (R)-3-((4-((4-(3-(5-(tert-Butyl)-2-methoxy-3-(methylsulfonamido)phenyl)ureido)-naphthalen-1-yl)oxy)pyridin-2-yl)amino)-5-ethynyl-N-(1-(2-(2-methoxyethoxy)ethoxy)-propan-2-yl)benzamide] | 2% | 2% | −1%
142 nM | 22 nM | 1160 nM | 8330 nM | COCCOCCOCCOc1cc(Nc2nccc(Oc3ccc(NC(=O)Nc4cc(C(C)(C)C)cc(NS(C)(=O)=O)c4-c4ccccc4)c4ccccc34)n2)cc(OC)c1 [83(a), N-(4-(tert-butyl)-6-(3-(4-((2-((3-methoxy-5-(2-(2-(2-methoxyethoxy)ethoxy)ethoxy)phenyl)-amino)pyrimidin-4-yl)oxy)naphthalen-1-yl)ureido)-[1,1′-biphenyl]-2-yl)methane-sulfonamide] |  |  | 
181 nM | 48 nM | 461 nM | 4340 nM | COCCOCCOCCOc1cc(Nc2nccc(Oc3ccc(NC(=O)Nc4cc(C(C)(C)C)cc(NS(C)(=O)=O)c4OC)c4ccccc34)n2)cc(OC)c1Cl [Example 58, N-(5-(tert-Butyl)-3-(3-(4-((2-((4-chloro-3-methoxy-5-(2-(2-(2-methoxyethoxy)ethoxy)ethoxy)-phenyl)amino)pyrimidin-4-yl)oxy)naphthalen-1-yl)ureido)-2-methoxyphenyl)-methanesulfonamide] | 5% | 2% | 10%
258 nM | 56 nM | 1220 nM | 8360 nM | C#Cc1cc(Nc2cc(Oc3ccc(NC(=O)Nc4cc(C(C)(C)C)cc(NS(C)(=O)=O)c4OC)c4ccccc34)ccn2)cc(C(=O)NCCN2CCOCC2)c1 [Example 49, 3-((4-((4-(3-(5-(tert-Butyl)-2-methoxy-3-methylsulfonamido)phenyl)ureido)naphthalen-1-yl)oxy)pyridin-2-yl)amino-5-ethynyl-N-(2-morpholinoethyl)benzamide] | −1% | −2% | −5%
335 nM | 45 nM | 631 nM | 763 nM | C#Cc1cc(Nc2nccc(Oc3ccc(NC(=O)Nc4cc(C(C)(C)C)cc(NS(C)(=O)=O)c4OC)c4ccccc34)n2)cc(C(=O)N[C@H](C)CN2CCOCC2)c1 [Example 56, (R)-3-((4-((4-(3-(5-(tert-Butyl)-2-methoxy-3-(methysulfonamido)phenyl)ureido)-naphthalen-1-yl)oxy)pyrimidin-2-yl)amino)-5-ethynyl-N-(1-morpholinopropan-2-yl)-benzamide] | 3% | 13% | 14%
32 nM | 44 nM | 1320 nM | 10600 nM | C#Cc1cc(Nc2cc(Oc3ccc(NC(=O)Nc4cc(C(N)=O)cc(C(C)(C)C)c4)c4ccccc34)ccn2)cc(C(=O)NCCOCCOCCOC)c1 [Example 62, 3-((4-((4-(3-(3-(tert-Butyl)-5-carbamoylphenyl)ureido)naphthalen-1-yl)oxy)vridin-2-yl)amino)-5-ethynyl-N-(2-(2-(2-methoxyethoxy)ethoxy)ethyl)benzamide] |  |  | 
37 nM | 45 nM |  | 12700 nM | C#Cc1cc(Nc2nccc(Oc3ccc(NC(=O)Nc4cc(F)cc(N5CCOCC5)c4)c4ccccc34)n2)cc(C(=O)NCCN2CCOCC2)c1 [Example 2, 3-Ethynv-5-((4-((4-(3-(3-fluoro-5-morpholinophenyl)ureido)naphthalen-1-yl)oxy)-pyrimidin-2-yl)amino)-N-(2-morpholinoethyl)benzamide] | −6% | −4% | 
18 nM | 968 nM |  | 1250 nM | COc1c(NC(=O)Nc2ccc(Oc3ccnc(NCc4ccccn4)c3)c3ccccc23)cc(C(C)(C)C)cc1C(=O)NC1COC1 [Example 80, 5-(tert-Butyl)-2-methoxy-N-(oxetan-3-yl)-3-(3-(4-((2-((pyridin-2-ylmethyl)amino)pyridin-4-yl)oxy)naphthalen-1-yl)ureido)benzamide] | 5% | 38% | 47%
275 nM |  |  | 12600 nM | COc1c(NC(=O)Nc2ccc(Oc3ccnc(Nc4ccccc4)c3)c3ccccc23)cc(C(C)(C)C)cc1C(=O)NC1CCOCC1 [84(a), 3-[[4-[(2-Anilino-4-pyridyl)oxy]-1-naphthyl]carbamoylamino]-5-tert-butyl-2-methoxy-N-tetrahydropyran-4-yl-benzamide] |  |  | 
38 nM | 29 nM | 656 nM | 6740 nM | COc1cc(Nc2cc(Oc3ccc(NC(=O)Nc4cc(C(C)(C)C)cc(NS(C)(=O)=O)c4OC)c4ccccc34)ccn2)cc(C(=O)NCC(=O)N2CCOCC2)c1 [Example 85(a), 3-[[4-[[4-[[5-tert-Butyl-3-(methanesulfonamido)-2-methoxyphenyl]-carbamoylamino]-1-naphthyl]oxy]-2-pyridyl]amino]-5-methoxy-N-(2-morvholino-2-oxo-ethyl)benzamide] |  |  | 
332 nM | 67 nM | 86 nM | 3970 nM | COCCOCCOCCOc1cc(Nc2nccc(Oc3ccc(NC(=O)Nc4cc(C(C)(C)C)cc(-c5cnn[nH]5)c4OC)c4ccccc34)n2)cc(OC)c1 [Example 70, 1-(5-(tert-Butyl)-2-methoxy-3-(1H-1,2,3-triazol-5-yl)phenyl)-3-(4-((2-((3-methoxy-5-(2-(2-(2-methoxyethoxy)ethoxy)ethoxy)phenyl)amino)pyrimidin-4-yl)oxy)naphthalen-1-yl)urea] |  |  | 

Structure (SMILES) | IC50 [1] | IC50 [2] | IC50 [3] | IC50 [4] | % β-catenin induction ([5]; test compound 1 μg/mL) | % β-catenin induction ([5]; test compound 5 μg/mL) | % β-catenin induction ([5]; test compound 10 μg/mL)
COCCOCCOCCOc1cc(Nc2nccc(Oc3ccc(NC(=O)Nc4cc(C(C)(C)C)cc(C(=O)NCCO)c4OC)c4ccccc34)n2)cc(OC)c1 [Example 35, 5-(tert-Butyl)-N-(2-hydroxyethyl)-2-methoxy-3-(3-(4-((2-((3-methoxy-5-(2-(2-(2-methoxy-ethoxy)ethoxy)ethoxy)phenyl)amino)pyrimidin-4-yl)oxy)naphthalen-1-yl)ureido)-benzamide] | 120 nM | 13 nM | 48 nM | 597 nM |  |  | 

— US9481648B2, “Kinase inhibitors” (Respivert Limited, priority 2013, dated 2016)
